Series [1] can be described thus: Stability of FRET reporter substrates to uncatalyzed hydrolysis. It is filed as physicochemical. An excerpt: (§1) A convenient in vitro fluorometric esterase assay utilizing the BioTek Instruments Synergy™ HT Multi-Mode Microplate 96-well reader was developed that measured nanomolar concentrations of fluorescent reaction product.
For series [2], the target named is T1, hDAGLα (Homo sapiens, UniProt Q9Y4D2).
T1 sequence (Q9Y4D2 1-1042): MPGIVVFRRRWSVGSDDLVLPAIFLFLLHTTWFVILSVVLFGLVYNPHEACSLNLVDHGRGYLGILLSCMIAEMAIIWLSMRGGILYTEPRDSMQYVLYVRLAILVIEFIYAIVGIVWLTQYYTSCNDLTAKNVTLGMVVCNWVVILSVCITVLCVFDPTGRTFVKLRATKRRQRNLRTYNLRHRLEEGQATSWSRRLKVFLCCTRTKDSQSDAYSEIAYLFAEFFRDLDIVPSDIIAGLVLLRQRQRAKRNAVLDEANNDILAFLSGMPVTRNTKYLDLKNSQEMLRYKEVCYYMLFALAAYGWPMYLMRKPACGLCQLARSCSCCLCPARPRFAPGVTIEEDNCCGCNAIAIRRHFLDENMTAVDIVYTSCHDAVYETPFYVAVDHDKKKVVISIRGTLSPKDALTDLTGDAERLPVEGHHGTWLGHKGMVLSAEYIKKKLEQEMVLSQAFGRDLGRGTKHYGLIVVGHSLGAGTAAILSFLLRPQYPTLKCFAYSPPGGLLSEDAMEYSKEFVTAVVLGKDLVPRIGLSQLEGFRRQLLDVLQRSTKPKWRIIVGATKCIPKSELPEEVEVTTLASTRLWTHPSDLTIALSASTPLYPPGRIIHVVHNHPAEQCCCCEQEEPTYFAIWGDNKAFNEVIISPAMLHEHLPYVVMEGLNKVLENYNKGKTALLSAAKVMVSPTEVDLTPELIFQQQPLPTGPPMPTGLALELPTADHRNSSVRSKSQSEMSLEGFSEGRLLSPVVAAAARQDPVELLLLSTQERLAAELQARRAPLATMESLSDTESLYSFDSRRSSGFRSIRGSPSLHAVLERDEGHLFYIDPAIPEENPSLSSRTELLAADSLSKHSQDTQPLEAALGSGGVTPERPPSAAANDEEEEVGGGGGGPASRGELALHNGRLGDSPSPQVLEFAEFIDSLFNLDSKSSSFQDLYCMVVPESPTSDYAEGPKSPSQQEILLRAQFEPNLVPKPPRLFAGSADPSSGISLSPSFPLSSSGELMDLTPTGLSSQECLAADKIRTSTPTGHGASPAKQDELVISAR
Briefly: Evaluation of FRET reporter substrates for enzymatic hydrolysis. It is filed as biochemical. Further details: V5; His; expressed in transfected cells; host or cells: HEK293T, transient; crude cell lysate or membrane preparation.
From the text: Reporter compounds as substrates for hDAGLα activity with HEK293T cell lysates in the presence of 10% DMSO are shown. A) Pyrenyl analogs (17)-(19), (21), and (22) (EX 320 nm, EM 400 nm). B) NBD analog (20) (EX 485 nm, EM 535 nm).
as §1

In another series the test system is DAGL. Particulars: cited from earlier work.
The subject of a further series is cannabinoid receptors. The following applies: cited from earlier work.
The subject of series [3] is Lipoprotein Lipase (Bacterial). It is filed as biochemical, Pseudomonas sp.
Another series has as its system FAAH. Particulars: cited from earlier work.
Series [4] concerns the target T2, MAGL (Homo sapiens, UniProt Q99685).
T2 sequence (Q99685 1-303): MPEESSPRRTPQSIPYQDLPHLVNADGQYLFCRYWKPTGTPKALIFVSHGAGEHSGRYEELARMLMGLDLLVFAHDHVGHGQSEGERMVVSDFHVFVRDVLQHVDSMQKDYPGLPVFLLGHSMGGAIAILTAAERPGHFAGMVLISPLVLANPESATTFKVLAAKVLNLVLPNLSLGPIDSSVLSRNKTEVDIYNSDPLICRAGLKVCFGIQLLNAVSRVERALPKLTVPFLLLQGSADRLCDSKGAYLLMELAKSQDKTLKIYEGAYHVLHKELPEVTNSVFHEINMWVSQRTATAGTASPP
The following applies: cited from earlier work.

Series [5] has as its target T1, hDAGLα.
A further series deals with T3, mDAGLα (Mus musculus, UniProt Q6WQJ1).
T3 sequence (Q6WQJ1 1-1044): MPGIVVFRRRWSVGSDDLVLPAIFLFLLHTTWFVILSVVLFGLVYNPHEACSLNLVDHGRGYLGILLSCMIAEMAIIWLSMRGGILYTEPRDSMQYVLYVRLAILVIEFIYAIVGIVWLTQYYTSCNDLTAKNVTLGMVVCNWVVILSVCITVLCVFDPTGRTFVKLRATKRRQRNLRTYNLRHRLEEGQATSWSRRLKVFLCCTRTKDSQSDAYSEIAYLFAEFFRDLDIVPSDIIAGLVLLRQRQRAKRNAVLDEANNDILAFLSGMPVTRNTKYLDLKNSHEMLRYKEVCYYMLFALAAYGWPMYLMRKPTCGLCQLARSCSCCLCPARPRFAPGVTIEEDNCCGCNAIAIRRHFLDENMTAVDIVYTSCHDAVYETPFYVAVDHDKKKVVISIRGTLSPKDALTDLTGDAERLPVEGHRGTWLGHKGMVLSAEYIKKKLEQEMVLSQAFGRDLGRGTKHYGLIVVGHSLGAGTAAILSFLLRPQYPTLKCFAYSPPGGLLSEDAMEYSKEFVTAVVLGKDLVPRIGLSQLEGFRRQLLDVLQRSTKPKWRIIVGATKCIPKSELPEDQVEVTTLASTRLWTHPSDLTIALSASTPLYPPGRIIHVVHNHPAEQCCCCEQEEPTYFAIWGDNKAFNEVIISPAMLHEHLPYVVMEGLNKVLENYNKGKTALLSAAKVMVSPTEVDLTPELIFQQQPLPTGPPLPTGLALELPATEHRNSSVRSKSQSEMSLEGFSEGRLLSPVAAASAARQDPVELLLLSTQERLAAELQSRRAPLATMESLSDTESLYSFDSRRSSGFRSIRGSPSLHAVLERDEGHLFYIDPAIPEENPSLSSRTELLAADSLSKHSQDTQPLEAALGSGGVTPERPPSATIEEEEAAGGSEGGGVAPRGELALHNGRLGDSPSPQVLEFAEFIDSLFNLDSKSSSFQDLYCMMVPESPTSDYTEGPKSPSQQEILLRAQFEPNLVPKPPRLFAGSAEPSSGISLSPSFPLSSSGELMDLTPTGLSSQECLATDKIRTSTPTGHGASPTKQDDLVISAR
Briefly: Radio-TLC assay with [14C]SAG substrate, mDAGLα. The following applies: read-out: mDAGLα inhibition at 10000 nM (%).

Series [6] deals with T2, MAGL. Briefly: hMAGL coumarin substrate fluorescence assay. It is filed as biochemical. Further details: The N-terminal his-tagged full length human monoacylglycerol lipase used; His (N); made in house; host or cells: E. coli. Particulars: read-out: hMAGL inhibition at 10 μM (%).
For series [7], the target named is T1, hDAGLα. Briefly: biochemical.
Series [8] has as its target T4, Pancreatic Lipase (Porcine) (Sus scrofa, UniProt P00591).
T4 construct: purchased Sigma L3126
T4 sequence (P00591 1-450): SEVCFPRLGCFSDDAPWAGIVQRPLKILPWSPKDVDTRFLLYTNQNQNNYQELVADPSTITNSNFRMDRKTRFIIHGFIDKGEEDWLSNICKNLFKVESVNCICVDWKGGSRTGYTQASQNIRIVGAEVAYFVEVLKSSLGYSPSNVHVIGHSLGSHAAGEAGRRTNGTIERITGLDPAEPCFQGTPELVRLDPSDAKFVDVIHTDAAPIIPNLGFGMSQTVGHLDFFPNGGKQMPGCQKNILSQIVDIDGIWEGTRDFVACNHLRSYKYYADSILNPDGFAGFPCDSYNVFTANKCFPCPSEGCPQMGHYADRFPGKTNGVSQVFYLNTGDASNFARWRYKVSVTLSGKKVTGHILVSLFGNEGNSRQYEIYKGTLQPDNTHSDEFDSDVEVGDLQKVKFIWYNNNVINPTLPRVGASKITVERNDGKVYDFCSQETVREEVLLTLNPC
Format: biochemical. Particulars: read-out: Pancreatic Lipase (Porcine) inhibition at 10 μM (%).

The structures appear in SMILES notation. “Also recorded” adds a separate entry of the source. Read-outs that look alike come from different tables or passages of the source. A value given as a limit tells only on which side of the number the result lay.

With `COC[C@@H](COC(=O)CCCCCNc1ccc([N+](=O)[O-])cc1[N+](=O)[O-])OC(=O)CCCc1ccc2ccc3cccc4ccc1c2c34` [Compound 17, 1-((2,4-Dinitrophenyl)amino)hexanoyl-2-pyrenebutanoyl-3-methyl-sn-glycerol], the “stability to uncatalyzed hydrolysis at neutral pH” value in series [1] is on record as “stable”. The “quality as substrate for enzymatic hydrolysis” value on hDAGLα [2] is “best enzyme substrates”.

`COC[C@@H](COC(=O)CCCc1ccc2ccc3cccc4ccc1c2c34)OC(=O)CCCCCNc1ccc([N+](=O)[O-])cc1[N+](=O)[O-]` [Compound 18, 1-Pyrenebutanoyl-2-((2,4-dinitrophenyl)amino)hexanoyl-3-methyl-sn-glycerol]: the “stability to uncatalyzed hydrolysis at neutral pH” value in series [1] was “stable”. For the same molecule, at hDAGLα [2], the “quality as substrate for enzymatic hydrolysis” value is on record as “best enzyme substrates”.

As to `O=S(=O)(F)Cc1ccccc1` [PMSF, phenylmethylsulfonylfluoride], in the series on DAGL, the “effect on DAGL activity reported in the literature” value was “poor inhibitors; also recorded: not affected”. Besides, the “binding to the cannabinoid receptors, previous reports” value in the series on cannabinoid receptors (literature) is listed as “did not bind”. Further, the “Lipoprotein Lipase (Bacterial) inhibition at 10 μM (%)” value in series [3] was less than 0%. Moreover, the “inhibition of FAAH activity reported in the literature” value in the series with FAAH is listed as “poor inhibitors”. Moreover, the “inhibition of MAGL activity reported in the literature” value on MAGL [4] was “poor inhibitors”. Also, at hDAGLα [5], the “inhibition of hDAGLα in radio-TLC assays” value was “poor inhibitors”.

What is called inhibition is the relative decrease from the control value, in per cent. For the molecule `NC(=O)c1cccc(-c2cccc(OC(=O)NC3CCCCC3)c2)c1` [URB597], the inhibition at 10 µM on mDAGLα was less than 0%; at MAGL [6] it was 18%; on hDAGLα [7] (read-out: hDAGLα inhibition at 10 μM detergent free (%), FRET), 22%; at hDAGLα [7] (read-out: hDAGLα inhibition at 10 μM detergent free (%), FRET, marker °) it was 7%; in series [8] it was 68%. The “binding to the cannabinoid receptors, previous reports” value in the series on cannabinoid receptors is reported as “did not bind”. In addition, in series [3], the “Lipoprotein Lipase (Bacterial) inhibition at 10 μM (%)” value was 21%. In addition, on MAGL [4], the “inhibition of MAGL activity reported in the literature” value is “poor inhibitors”.
